Tests used:
human hsp70 promoter = assay: Luciferase reporter assay under control of human hsp70 promoter in L929 cells exposed to heat shock; type: cell-based, murine; details: 10 μM, heat shock at 40° C. and 41° C., Bimoclomol as internal positive control
Procedure: For example, L929 cells, incubated at 37° C., are stressed by heat shock at 40° or 41° C. with exposures variable from 20 min to an hour or more. After heat shock, a molecular assay that involves mRNA purification, its separation on agarose or acrylamide gels followed by hybridization with a labeled probe ([…] performed. Alternatively, the activity of luciferase used as reported gene under the control of a heat shock promoter can be used (FIG. 1). In this case, after heat shock cells are lysed in the presence of an appropriate substrate for luciferase, the activity is measured with a luminometer. […] The test utilized to assay the over expression of heat shock genes is based on a rapid enzymatic assay to determine luminescence of eukaryotic cells transfected with luciferase gene. The luciferase gene has been cloned in an eukaryotic plasmid under the control of human hsp70 gene and transfected in murine fibroblasts (L929 cell line). In such cells, a heat shock induces hsp70 promoter that activates transcription of the downstream gene (reporter gene, e.g. luciferase) whose activity is measured determining luciferase in the presence of luciferine with a luminometer. […] After lysis, luciferase activity has been determined measuring the quantity of light emitted with a luminometer. […]

[1] = Membrane fluidity (DPH fluorescence anisotropy) in artificial membranes (LUVs); details: LUVs of di-oleil-fosfatidyl-ethanolamine, di-oleil-fosfatidyl-choline, cardiolipin and fosfatidylserine; 1 DPH per 500 lipid molecules
Excerpt: Test to evaluate changes of MPS in artificial membranes (LUVs, Large Unilamellar Vesicles), made of di-oleil-fosfatidyl-ethanolamine, di-oleil-fosfatidyl-choline, cardiolipin and fosfatidylserine, that mimic biological membrane lipid composition. Fluidity has been measured with DPH (1,6-difenyl-1,3,5-esatriene) measuring fluorescence.
In these membranes, every 500 lipid molecules is inserted. 1 molecule of DPH This substance emits fluorescent light when it is excited with polarized light. The more a membrane is rigid the less is the capacity of the molecules to rotate freely in the membrane. Using a fluorimeter that detects the emitted fluorescence by DPH, either vertically in respect to the polarizing light or horizontally, the anisotropy of the membrane is determined and correlated to its fluidity. The more the membrane is fluid, the more DPH rotates freely and emits light in a direction different from that with which it receives the excitation. To a higher value of anisotropy corresponds a higher rigidity of the membrane, while a lower anisotropy (low fluorescence) corresponds a higher fluidity.

SMILES: Oc1ccc(C=Cc2cc(O)cc(O)c2)cc1 [#100, Resveratrol, reference compound]
- heat shock response (hsp70 promoter-driven luciferase activity / inducibility of hsp70 mRNA transcription by heat shock) (human hsp70 promoter): inhibits the inducibility of hsp70 mRNA transcription by heat shock

SMILES: Oc1ccc2c(c1)O[C@H](c1ccc(O)c(O)c1)[C@@H](O[C@@H]1OC[C@@H](O)[C@H](O)[C@H]1O)C2 [#11, fisetinidol-3-O-β-D-xylopyranoside]
- heat shock response (hsp70 promoter-driven luciferase activity / inducibility of hsp70 mRNA transcription by heat shock) (human hsp70 promoter): induce a heat shock response
- change of membrane physical state (fluidity) measured with DPH fluorescence [1]: increases fluidity

— US20040266699A1, “Flavonoid compounds capable of modifying the dynamic and/or physical state of biological membranes and to stimulate the endogenous synthesis of stress proteins in eukaryotic cells, relative synthesis and their use” (priority 2001, published 2004)
